# Results reported in patent EP0215136B1, “Hexetidin-containing therapeutically active agent, method for its preparation and its use as a vaginal disinfectant” (Artesan Pharma Gesellschaft mit beschränkter Haftung, priority 1985, dated 1987).
# Columns and labels:
# [1] = cited from earlier work
# [2] = cited from earlier work; remark: listed apart in the source
# [3] = Stability of hexetidine in aqueous solution; format: physicochemical; conditions: neutral to weakly acidic aqueous solution; rearranges to two isomers up to an equilibrium
# Description: Aufgrund über Jahre geführter Untersuchungen sind die bekannten Methoden nicht geeignet, ein stabiles pharmazeutisches Präparat herzustellen. […] Es lagert sich bis zu einem Gleichgewicht in zwei isomere Substanzen um. Zwar wirken diese im Prinzip gleichartig, jedoch dürfen sie aus gesundheitsrechtlichen Gründen im Endprodukt nur geringfügig vorhanden sein.
Structure (SMILES),Löslichkeit in Wasser [1],Löslichkeit in Alkohol ([1]; Alkohol),Löslichkeit in unpolaren organischen Lösungsmitteln ([1]; unpolare organische Lösungsmittel),Haut- und Schleimhaut-Verträglichkeit ([2]; known property),Toxizität bei Resorption ([2]; known property),"toxische Wirkung ([2]; use as 0,1% gargle solution over 20 years)",Haltbarkeit in wässeriger Lösung [3]
CCCCC(CC)CN1CN(CC(CC)CCCC)CC(C)(N)C1 (centres unmarked) [Hexetidinsalz],leicht löslich,,,,,,
"CCCCC(CC)CN1CN(CC(CC)CCCC)CC(C)(N)C1 (centres unmarked) [Hexetidin, 1,3-Bis-(2-ethylhexyl)-hexahydro-5-methyl-5-pyrimidinamin]",nur schwer löslich,leicht löslich,leicht löslich,gute,geringe,nie beobachtet,nur kurzfristig haltbar
